Legend:
[1] = test system: sodium current of DRG neurons; test: whole cell patch clamp, sodium currents in DRG neurons; assay type: cell-based, rat
[2] = volunteers, tablets of 900 mg of trimebutine, oral
[3] = test system: streptozocin-induced hyperalgesia; test: streptozocin-induced diabetic rats, tail immersion test; assay type: in vivo, rat; conditions: single dose 30 mg/kg s.c., 30 min or 60 min before tail immersion test, water 44° C.
Protocol: FIG. 9: Effect of TMB in diabetic rats.
Test is carried out with male Sprague Dawley rats (Iffa-Credo) weighing 160-180 grams on arrival. […] Food and water are provided ad libidum.
Animals are intraperitoneally injected with streptozocin 75 mg/kg. Control animals are given vehicle in the same conditions. Diabetes are confirmed once a week after injection by measurement of tail vein blood glucose levels with Boehriger glycemnia test. Only animals with a final glucose level[…] are included in the study.
The tail of the rat is immersed in a water bath at 44° C. Nociceptive reaction is defined as the reaction time (seconds) before the tail withdrawal. Results are expressed as the mean+/−SEM and analysed by a Student's t test after an analysis of variance (Anova one way)

[4] = test system: unilateral peripheral mononeuropathy; test: rat mononeuropathy, vocalization threshold to paw pressure
formalin induced pain = test: formalin-induced pain; conditions: s.c., 30 min before formalin injection in the paw

CCC(COC(=O)c1cc(OC)c(OC)c(OC)c1)(c1ccccc1)N(C)C.O=C(O)/C=C\C(=O)O (racemic) [trimebutine, 2-dimethylamino-2-phenylbutyl 3,4,5-trimethoxybenzoate hydrogen maleate]
unblocking rate koff [1]: 29 10^−3 s^−1
time constant τoff of recovery from block ([1]; n=6): 34 ± 4 s
time of maximal plasma concentrations [2]: 1 h

CC[C@](COC(=O)c1cc(OC)c(OC)c(OC)c1)(NC)c1ccccc1 [(S)-Nor-TMB, (S)-N-desmethyl trimebutine]
reaction time of tail withdrawal [3]: the same as in control (non diabetic) rats
antinociceptive effect in terms of amplitude and duration of action ([4]; 3 and 10 mg/kg s.c.): superior to that of morphine at 1 mg/kg i.v.
antinociceptive effect in the contralateral paw ([4]; s.c.): only at the highest dose (10 mg/kg)
dose from which increase of the vocalization pressure threshold is present ([4]; s.c.): ≥ 1 mg/kg
antinociceptive effect in the nerve-injured paw ([4]; s.c., three doses): significant at all the three doses tested

CCC(COC(=O)c1cc(OC)c(OC)c(OC)c1)(NC)c1ccccc1 (stereo not drawn) [Nor-TMB, N-desmethyl trimebutine]
ED50, formalin induced pain (formalin induced pain): 17 mg/kg

— patent publication US6353024B1, “Method for preventing and treating arthritis, osteo-traumatic pain, and neuralgias with trimebutine” (Warner-Lambert Company, priority 2000, dated 2002)
